# Test results taken from patent US20160038505A1, “METHODS AND COMPOSITIONS FOR TREATING IMPULSE CONTROL DISORDER, ANXIETY-RELATED DISORDERS, VIOLENCE AND/OR ANGER, OR REGULATING FOOD INTAKE” (priority 2014, published 2016).
# “Also recorded” adds a separate entry of the source.
# What was measured:
# [1] = tested on: dogs; experiment: Single dose (acute oral) toxicity/TK study in dogs; type: in vivo, dog
# [2] = Plasma toxicokinetics in dogs, 14 day repeat dose study; type: in vivo, dog
# Method: Noribogaine HCl was administered to groups of 4 male and 4 female dogs by single oral gavage daily for 14 days at doses of 0, 0.5, 1.0 and 5.0 mg/kg/day. An additional group of 4 male and 4 female dogs received either the vehicle control or 5.0 mg/kg/day for 14 days and were held for an additional 28 days after cessation of dosing to assess recovery from any potential drug-induced changes. The study was conducted under GLP guidelines and included comprehensive examinations of clinical signs, body weight, clinical pathology parameters, ophthalmologic examinations, ECG recordings and analyses of plasma for bioanalytical measurement of drug levels at appropriate intervals during the study. At the termination of the dosing phase and at the termination of the recovery phase, all dogs were subjected to a complete post-mortem examination including gross examination of major organs and histologic examination of an extensive list of tissues. Additional sections of brain were obtained from cerebrum, cerebellus, brain stem and spinal cord and examined histologically to evaluate potential effects on brain histopathology. In addition, these sections were examined with immunohistochemical stains for GFAP for evidence of gliosis and Calbindin for a more comprehensive examination of cerebellar Purkinje cells.
# [3] = tested on: healthy, drug-free male volunteers; experiment: Safety and tolerability of noribogaine in healthy humans; type: in vivo, human
# Method: Safety and tolerability of noribogaine were tested in the group of volunteers from Example 9. […] Safety evaluations included clinical monitoring, recording of adverse events (AEs), safety laboratory tests, vital signs, ECG telemetry from −2 h to 6 h after dosing, and 12-lead electrocardiograms (ECGs) up to 216 hours post-dosing.
# [4] = tested on: opioid-dependent participants; experiment: Time to resumption of opioid substitution treatment and withdrawal scales (COWS, SOWS, OOWS); type: in vivo, human
# Method: Three cohorts of nine (9) subjects (6 administered noribogaine and 3 administered placebo in each cohort) were evaluated for tolerability, pharmacokinetics, and efficacy. Cohort 1 received a single dose of 60 mg noribogaine or placebo. Cohort 2 received a single dose of 120 mg noribogaine or placebo. Cohort 3 received a single dose of 180 mg noribogaine or placebo.
# Patients were evaluated based on the Clinical Opiate Withdrawal Scale (COWS), Subjective Opiate Withdrawal Scale (SOWS), and Objective Opiate Withdrawal Scale (OOWS) scoring systems over the period of time between administration of noribogaine (or placebo) until resumption of OST. These scales are outlined in Guidelines for the Psychosocially Assisted Pharmacological Treatment of Opioid Dependence, World Health Organization, Geneva (2009), Annex 10, which is incorporated herein by reference in its entirety. The scales measure the intensity of withdrawal symptoms, based on clinical, subjective, and objective indicia.
# [5] = tested on: opioid-dependent participants; experiment: QT interval evaluation in opioid-dependent patients; type: in vivo, human; settings: 60, 120, 180 mg, first 24 hours; correlated with serum concentration
# Method: Patients' QT intervals were evaluated at regular time points throughout the study.
# [6] = dog, plasma, po, female dogs, 5.0 mg/kg, D 14
smiles,measurement,setting,value
CC[C@H]1CC2C[C@H]3c4[nH]c5ccc(O)cc5c4CCN(C2)C13 [noribogaine],findings at NOAEL dose,[1]; 5 mg/kg,only transient reduction in food consumption in one dog
same,clinical signs,"[1]; 10 mg/kg, from 20 minutes until 3 h 40 m post-dose",Convulsions and other CNS-related clinical signs
same,mortality,[1]; 5 (n=2) or 10 (n=2) mg/kg oral,no mortality occurred
same,Cmax at 1 day of dosing,"[2]; dog, plasma, po, female dogs, 0.5 mg/kg, D 1",25.3 ng/mL
same,Cmax at 14 day of dosing,"[2]; dog, plasma, po, female dogs, 0.5 mg/kg, D 14",29.8 ng/mL
same,Cmax at 1 day of dosing,"[2]; dog, plasma, po, female dogs, 1.0 mg/kg, D 1",68.5 ng/mL
same,Cmax at 14 day of dosing,"[2]; dog, plasma, po, female dogs, 1.0 mg/kg, D 14",74.1 ng/mL
same,Cmax at 1 day of dosing,"[2]; dog, plasma, po, female dogs, 5.0 mg/kg, D 1",691 ng/mL
same,Cmax at 14 day of dosing,[2]; [6],683 ng/mL
same,Tmax at 14 day of dosing,[2]; [6],36 min
same,AUC0-24 h,"[2]; female dogs, 0.5 mg/kg, D 1",40.4 ng·h/mL
same,AUC0-last,"[2]; female dogs, 0.5 mg/kg, D 1",31.5 ng·h/mL
same,AUC0-∞,"[2]; female dogs, 0.5 mg/kg, D 1",44.9 ng·h/mL
same,T1/2,"[2]; female dogs, 0.5 mg/kg, D 1",1.0 h
same,Tmax,"[2]; female dogs, 0.5 mg/kg, D 1",30 min
same,AUC0-24 h,"[2]; female dogs, 0.5 mg/kg, D 14",55.0 ng·h/mL
same,AUC0-last,"[2]; female dogs, 0.5 mg/kg, D 14",35.4 ng·h/mL
same,AUC0-∞,"[2]; female dogs, 0.5 mg/kg, D 14",45.7 ng·h/mL
same,T1/2,"[2]; female dogs, 0.5 mg/kg, D 14",1.1 h
same,Tmax,"[2]; female dogs, 0.5 mg/kg, D 14",60 min
same,AUC0-24 h,"[2]; female dogs, 1.0 mg/kg, D 1",176.2 ng·h/mL
same,AUC0-last,"[2]; female dogs, 1.0 mg/kg, D 1",148.9 ng·h/mL
same,AUC0-∞,"[2]; female dogs, 1.0 mg/kg, D 1",165.3 ng·h/mL
same,T1/2,"[2]; female dogs, 1.0 mg/kg, D 1",1.4 h
same,Tmax,"[2]; female dogs, 1.0 mg/kg, D 1",48 min
same,AUC0-24 h,"[2]; female dogs, 1.0 mg/kg, D 14",203.7 ng·h/mL
same,AUC0-last,"[2]; female dogs, 1.0 mg/kg, D 14",169.0 ng·h/mL
same,AUC0-∞,"[2]; female dogs, 1.0 mg/kg, D 14",197.0 ng·h/mL
same,T1/2,"[2]; female dogs, 1.0 mg/kg, D 14",1.6 h
same,Tmax,"[2]; female dogs, 1.0 mg/kg, D 14",30 min
same,AUC0-24 h,"[2]; female dogs, 5.0 mg/kg, D 1",3367.9 ng·h/mL
same,AUC0-last,"[2]; female dogs, 5.0 mg/kg, D 1",3367.9 ng·h/mL
same,AUC0-∞,"[2]; female dogs, 5.0 mg/kg, D 1",3425.7 ng·h/mL
same,T1/2,"[2]; female dogs, 5.0 mg/kg, D 1",4.3 h
same,AUC0-24 h,"[2]; female dogs, 5.0 mg/kg, D 14",5951.2 ng·h/mL
same,AUC0-last,"[2]; female dogs, 5.0 mg/kg, D 14",5951.2 ng·h/mL
same,AUC0-∞,"[2]; female dogs, 5.0 mg/kg, D 14",6283.2 ng·h/mL
same,T1/2,"[2]; female dogs, 5.0 mg/kg, D 14",5.7 h
same,AUC0-24 h,"[2]; male dogs, 0.5 mg/kg, D 1",59.7 ng·h/mL
same,AUC0-last,"[2]; male dogs, 0.5 mg/kg, D 1",46.6 ng·h/mL
same,AUC0-∞,"[2]; male dogs, 0.5 mg/kg, D 1",67.8 ng·h/mL
same,Cmax,"[2]; male dogs, 0.5 mg/kg, D 1",28.8 ng/mL
same,T1/2,"[2]; male dogs, 0.5 mg/kg, D 1",1.3 h
same,Tmax,"[2]; male dogs, 0.5 mg/kg, D 1",42 min
same,AUC0-24 h,"[2]; male dogs, 0.5 mg/kg, D 14",64.5 ng·h/mL
same,AUC0-last,"[2]; male dogs, 0.5 mg/kg, D 14",53.2 ng·h/mL
same,AUC0-∞,"[2]; male dogs, 0.5 mg/kg, D 14",68.2 ng·h/mL
same,Cmax,"[2]; male dogs, 0.5 mg/kg, D 14",29.4 ng/mL
same,T1/2,"[2]; male dogs, 0.5 mg/kg, D 14",1.3 h
same,Tmax,"[2]; male dogs, 0.5 mg/kg, D 14",42 min
same,AUC0-24 h,"[2]; male dogs, 1.0 mg/kg, D 1",119.8 ng·h/mL
same,AUC0-last,"[2]; male dogs, 1.0 mg/kg, D 1",102.5 ng·h/mL
same,AUC0-∞,"[2]; male dogs, 1.0 mg/kg, D 1",120.8 ng·h/mL
same,Cmax,"[2]; male dogs, 1.0 mg/kg, D 1",58.6 ng/mL
same,T1/2,"[2]; male dogs, 1.0 mg/kg, D 1",1.2 h
same,Tmax,"[2]; male dogs, 1.0 mg/kg, D 1",54 min
same,AUC0-24 h,"[2]; male dogs, 1.0 mg/kg, D 14",210.4 ng·h/mL
same,AUC0-last,"[2]; male dogs, 1.0 mg/kg, D 14",172.3 ng·h/mL
same,AUC0-∞,"[2]; male dogs, 1.0 mg/kg, D 14",195.7 ng·h/mL
same,Cmax,"[2]; male dogs, 1.0 mg/kg, D 14",67.6 ng/mL
same,T1/2,"[2]; male dogs, 1.0 mg/kg, D 14",1.8 h
same,Tmax,"[2]; male dogs, 1.0 mg/kg, D 14",48 min
same,AUC0-24 h,"[2]; male dogs, 5.0 mg/kg, D 1",3515.0 ng·h/mL
same,AUC0-last,"[2]; male dogs, 5.0 mg/kg, D 1",3515.0 ng·h/mL
same,AUC0-∞,"[2]; male dogs, 5.0 mg/kg, D 1",3630.5 ng·h/mL
same,Cmax,"[2]; male dogs, 5.0 mg/kg, D 1",693 ng/mL
same,T1/2,"[2]; male dogs, 5.0 mg/kg, D 1",4.7 h
same,AUC0-24 h,"[2]; male dogs, 5.0 mg/kg, D 14",6403.3 ng·h/mL
same,AUC0-last,"[2]; male dogs, 5.0 mg/kg, D 14",6403.3 ng·h/mL
same,AUC0-∞,"[2]; male dogs, 5.0 mg/kg, D 14",6961.4 ng·h/mL
same,Cmax,"[2]; male dogs, 5.0 mg/kg, D 14",716 ng/mL
same,T1/2,"[2]; male dogs, 5.0 mg/kg, D 14",6.5 h
same,Tmax,"[2]; male dogs, 5.0 mg/kg, D 14",54 min
same,"adverse events, Mild",[3]; 3 mg,Dizziness; also recorded: Epistaxis; also recorded: Headache; also recorded: Back pain
same,"adverse events, Moderate",[3]; 3 mg,Headache
same,number of adverse events reported,[3]; 3 mg dose group,five adverse events were reported by two subjects
same,"adverse events, Mild",[3]; 10 mg,Headache
same,number of adverse events reported,"[3]; 10 mg dose group, single subject",one adverse event
same,"adverse events, Mild",[3]; 30 mg,Headache
same,number of adverse events reported,"[3]; 30 mg dose group, single subject",one adverse event
same,"oximetry, capnography, respiratory rate",[3]; 3-60 mg,"no changes in oximetry or capnography, or changes in respiratory rate"
same,vital signs and safety laboratory tests,[3]; 3-60 mg,no changes in vital signs or safety laboratory tests of note
same,QTcF values,"[3]; 3-60 mg, at any time",≤ 500 ms
same,single increase in QTcF,"[3]; one subject dosed with 10 mg, 24 hours post-dosing",> 60 ms
same,"withdrawal symptoms (COWS, OOWS, SOWS), first six hours following dosing",[4]; 120 mg,generally experienced fewer withdrawal symptoms than the other patients
same,average time to resumption of opioids (OST),[4]; single 120 mg dose,greater than 20 hours
same,QT interval prolongation (ΔQTcl),[5],dose-dependent increase in QT interval prolongation
